Literature values, collected in patent US9315472B2, “1,3,5-triazinane-2,4,6-trione derivatives and uses thereof” (Massachusetts Institute of Technology, priority 2013, dated 2016).
Read-outs that look alike come from different tables or passages of the source.

Assays:
[1] = rat, in vivo, po
[2] = mouse, in vivo, po

Q: With `O=c1n(CC2CO2)c(=O)n(CC2CO2)c(=O)n1CC1CO1` (centres unmarked) [Compound 1] as the compound, how does the tolerability [1] read?
A: tolerated

Q: What about the tolerability [2] of the same compound?
A: tolerated
